Measured values as given in PubChem BioAssay (NCI).
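Tested at 5 concentrations; 48 h exposure; 96-well plates; endpoints linearly interpolated, else capped at highest concentration. Abbreviation: GI50, concentration required for 50% inhibition of growth. TGI: concentration producing complete growth inhibition.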

Tests used:
Assay in all cases: NCI-60 cell line screen, 48 h
M14 melanoma = tested on: M14 melanoma
KM12 colon = tested on: KM12 colon
EKVX NSCLC = tested on: EKVX NSCLC
ACHN renal = tested on: ACHN renal
DMS 273 small cell lung = tested on: DMS 273 small cell lung
SF-295 CNS = tested on: SF-295 CNS
IGROV1 ovarian = tested on: IGROV1 ovarian
SK-MEL-2 melanoma = tested on: SK-MEL-2 melanoma
COLO 205 colon = tested on: COLO 205 colon
RXF 393 renal = tested on: RXF 393 renal

SMILES | TGI (M14 melanoma) [µM] | TGI (KM12 colon) [µM] | TGI (EKVX NSCLC) [µM] | TGI (ACHN renal) [µM] | TGI (DMS 273 small cell lung) [µM] | TGI (SF-295 CNS) [µM] | TGI (IGROV1 ovarian) [µM] | TGI (SK-MEL-2 melanoma) [µM] | TGI (COLO 205 colon) [µM] | TGI (RXF 393 renal) [µM] | GI50 (SK-MEL-2 melanoma) [µM] | GI50 (M14 melanoma) [µM] | GI50 (KM12 colon) [µM] | GI50 (COLO 205 colon) [µM] | GI50 (EKVX NSCLC) [µM] | GI50 (ACHN renal) [µM] | GI50 (RXF 393 renal) [µM] | GI50 (SF-295 CNS) [µM] | GI50 (IGROV1 ovarian) [µM] | GI50 (DMS 273 small cell lung) [µM]
C/C(=N\NS(=O)(=O)c1ccc(C)cc1)c1ccc[n+]([O-])n1 | > 100 | > 100 | > 100 | > 100 | > 100 | > 100 | > 100 |  |  |  |  |  |  |  |  |  |  |  |  | 
S=C(Nc1ccccc1)Nc1[nH]c(=S)sc1-c1nc2ccccc2[nH]1 | > 100 | > 100 | > 100 | > 100 | > 100 | > 100 | > 100 | > 100 | > 100 | > 100 |  |  |  |  |  |  |  |  |  | 
CCC1OCCN1C(C)C (stereo unspecified) |  | > 100 | 86.8 | > 100 | > 100 | > 100 | > 100 | > 100 | > 100 | > 100 |  |  |  |  |  |  |  |  |  | 
Cc1nnc2n1N=C(CC(=O)c1ccc(O)cc1O)CN2N | > 100 | > 100 | > 100 | > 100 | > 100 | > 100 | > 100 | > 100 | 35.8 | > 100 |  |  |  |  |  |  |  |  |  | 
CC1=NN(C(=O)CC(=O)Nc2cccc(Cl)c2)C(=O)C1N=Nc1ccc(S(N)(=O)=O)cc1 (stereo unspecified) | > 100 | > 100 | > 100 | > 100 | > 100 | > 100 | > 100 | > 100 | > 100 | > 100 |  |  |  |  |  |  |  |  |  | 
COC(=O)/C(=N\NC(=O)c1ccccc1O)C(C#N)c1ccc(Cl)cc1 (stereo unspecified) | > 100 | > 100 | > 100 | > 100 |  | > 100 | > 100 | > 100 | > 100 | 79.8 |  |  |  |  |  |  |  |  |  | 
CCOC(=O)/C=C1\Nc2ccccc2C(c2ccccc2)=NC1OC(C)=O (stereo unspecified) | > 100 | > 100 | > 100 | > 100 | > 100 | > 100 | > 100 | > 100 | > 100 |  |  |  |  |  |  |  |  |  |  | 
CC(=O)NC1C(OCc2ccccc2)OC(COC(=O)CCCCCCCCCCNC(=O)c2cccc3c(=O)c4ccccc4[nH]c23)C(O)C1OC(C)C(=O)NC(C)C(=O)NC(CCC(N)=O)C(N)=O (stereo unspecified) | > 100 | > 100 | > 100 | > 100 | > 100 | > 100 | > 100 | > 100 | > 100 |  |  |  |  |  |  |  |  |  |  | 
CCN(CC)CCC(=O)Nc1ccc(Cn2nnc3c2C(=O)c2nnn(Cc4ccc(NC(=O)CCN(CC)CC)cc4)c2C3=O)cc1 | 3.43 | 2.46 | 3.05 | 34.1 |  | 5.33 | 1.37 | 0.571 | 0.333 | 15.2 | 0.22 | 1.49 | 0.728 | 0.175 | 1.54 | 12.5 | 3.6 | 1.93 | 0.411 | 
CCOC(=O)CCC1(C(=O)OC)CCCC1=O (stereo unspecified) |  | > 100 | > 100 | > 100 | > 100 | > 100 | > 100 | > 100 | > 100 | > 100 |  |  |  |  |  |  |  |  |  | 
Cc1ccc(C2=Nc3c(N)ncnc3NC(c3cccc(Nc4ccnc5cc(C(F)(F)F)ccc45)c3)C2)cc1 (stereo unspecified) | 5.29 | 13.3 | > 100 | > 100 |  | 6.88 | 90.9 | 5.15 | 7.03 | 3.55 | 2.15 | 2.11 | 3.26 | 2.64 | 3.95 | 4.69 | 1.69 | 2.33 | 4.93 | 
CC(=O)[CH-]C(=O)c1ccccc1.CC(=O)[CH-]C(=O)c1ccccc1.[O]=[U+2]=[O] | > 100 | 9.83 | > 100 | > 100 |  | > 100 | > 100 | > 100 | 78.5 | > 100 | 37.4 | 35.8 | 3.67 | 28.4 | 32.8 | 33.6 | 34 | 6.55 | 55 | 
O=C1OCC(C(=O)c2cccc(O)c2)C1=O (stereo unspecified) | > 100 | > 100 | > 100 | > 100 | > 100 | > 100 | > 100 |  | > 100 | > 100 |  |  |  |  |  |  |  |  |  | 
CC(C)c1ccc(/C=C(\NC(=O)c2ccccc2)c2nc3ccccc3[nH]2)cc1 | > 100 | > 100 | 90 | > 100 | > 100 |  | > 100 | 89.3 | > 100 | > 100 |  |  |  |  |  |  |  |  |  | 
CC(C)OP(=O)(CP(=O)(OC(C)C)OC(C)C)OC(C)C.[CH3][Sn]([Br])([Br])[Br] |  | > 100 | > 100 | > 100 | > 100 | > 100 | > 100 | > 100 | > 100 | > 100 | > 100 |  | > 100 | > 100 | > 100 | > 100 | > 100 | > 100 | > 100 | > 100
Cc1ccc(NC(=O)CCC(=O)C2CC(=O)CC/C2=N\NC(=O)c2cc3ccccc3cc2O)cc1C (stereo unspecified) | 88.9 | > 100 | 99.6 | > 100 | 43.1 | > 100 | 66.9 | 82.7 | 33.3 |  |  |  |  |  |  |  |  |  |  | 
COc1ccc([Se]c2ccc(OC)cc2OC)c(OC)c1 | > 100 | > 100 |  | > 100 | 17.6 | 33.7 | 59.9 | 92.2 | 27.1 | 59.5 |  |  |  |  |  |  |  |  |  | 
CCOC(=O)c1[nH]c2c(c1C)-c1[nH]c(=O)c(S(=O)(=O)c3ccccc3)cc1SC2 | > 100 | > 100 | > 100 | > 100 |  | > 100 | > 100 | > 100 | 46.4 | > 100 | 92.3 | 38.8 | 38.5 | 22.5 | 38.8 | 47.3 | 28.4 | 28.1 | 21.3 | 
CCCC/C(=N\N=C(N)N)c1ccc(F)cc1 | 10.4 | 14 | 25.5 | 17.5 |  | 12.3 | 20.9 | 9.4 | 3.41 | 5.81 | 3.09 | 2.35 | 2.79 | 1.78 | 4.5 | 5.33 | 2.04 | 2.84 | 5.06 | 
